In patent US10174036B2, “Substituted pyrazoles as JAK inhibitors” (WUXI FORTUNE PHARMACEUTICAL CO., LTD, priority 2015, dated 2019):

Assays:
Type in all cases: biochemical
JAK1 = target: T1, JAK1 (Homo sapiens, UniProt P23458); test: Test for in vitro activity of JAK1 kinase (LANCE Ultra ULight-JAK-1 peptide); conditions: selectivity ratio JAK1 versus JAK2; class symbol
T1 construct: purchased Life technology
Method: (§1) Test for In Vitro Activity of Jak1, Jak2, and Jak3 Kinase
(§2) Recombinant human […] of JAK1, JAK2 and JAK3 were purchased from Life technology. LANCE Ultra ULight™-JAK-1 (Tyr1023) peptide and LANCE Eu-W1024 Anti-phosphotyrosine (PT66) were purchased from PerkinElmer. Multimode ELISA, Envison(PerkinElmer) reader was used.
The reaction was carried out at room temperature for 90 min and the reaction system was 10 ul.
(§3) Determination for Reaction
(§4) 10 ul detection reagent was added to reaction plate, wherein the final concentration of LANCE Eu-W1024 Anti-phosphotyrosine (PT66) was 2 nM, the final concentration of EDTA was […], incubated at room temperature for 60 min, with Envison reader.
(§5) The reading was converted to inhibition ratio (%) by the following formula: the inhibition ratio (%)=([…])/(Max−Min)×100%.

JAK3 = target: T2, JAK3 (Homo sapiens, UniProt P52333); test: Test for in vitro activity of JAK3 kinase (LANCE Ultra ULight-JAK-1 peptide); conditions: selectivity ratio JAK3 versus JAK2; class symbol
T2 construct: purchased Life technology
T2 sequence (P52333 1-1124): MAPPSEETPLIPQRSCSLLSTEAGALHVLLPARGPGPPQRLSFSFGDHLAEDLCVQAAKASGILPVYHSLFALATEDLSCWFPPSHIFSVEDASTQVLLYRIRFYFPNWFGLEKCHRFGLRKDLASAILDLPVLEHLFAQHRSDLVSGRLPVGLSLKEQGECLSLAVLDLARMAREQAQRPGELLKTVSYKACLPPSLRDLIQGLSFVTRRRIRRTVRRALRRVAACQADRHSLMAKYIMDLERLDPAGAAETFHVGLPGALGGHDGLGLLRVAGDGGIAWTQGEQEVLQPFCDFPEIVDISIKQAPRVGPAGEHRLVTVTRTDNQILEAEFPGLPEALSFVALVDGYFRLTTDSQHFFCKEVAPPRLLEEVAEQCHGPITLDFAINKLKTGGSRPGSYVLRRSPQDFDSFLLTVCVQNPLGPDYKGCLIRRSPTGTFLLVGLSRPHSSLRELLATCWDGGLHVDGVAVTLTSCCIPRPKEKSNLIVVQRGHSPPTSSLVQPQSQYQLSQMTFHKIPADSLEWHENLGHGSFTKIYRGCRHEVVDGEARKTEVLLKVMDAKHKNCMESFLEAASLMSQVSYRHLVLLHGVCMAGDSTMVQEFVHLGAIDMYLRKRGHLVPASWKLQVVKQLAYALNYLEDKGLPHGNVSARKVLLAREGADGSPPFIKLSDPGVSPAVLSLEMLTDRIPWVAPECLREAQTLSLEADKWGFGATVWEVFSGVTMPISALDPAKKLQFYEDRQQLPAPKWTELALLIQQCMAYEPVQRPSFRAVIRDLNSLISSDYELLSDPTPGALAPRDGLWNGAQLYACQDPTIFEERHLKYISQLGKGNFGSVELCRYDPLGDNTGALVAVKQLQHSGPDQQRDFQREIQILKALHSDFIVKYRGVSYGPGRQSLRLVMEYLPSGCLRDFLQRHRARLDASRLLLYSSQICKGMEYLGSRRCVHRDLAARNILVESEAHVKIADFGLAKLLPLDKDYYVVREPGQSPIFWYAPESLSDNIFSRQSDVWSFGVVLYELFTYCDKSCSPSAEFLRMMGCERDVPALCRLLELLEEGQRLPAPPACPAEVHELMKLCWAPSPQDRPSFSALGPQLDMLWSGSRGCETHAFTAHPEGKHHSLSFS
Method: as §1, §2
0.05 nM of JAK3 Protein kinase, 50 nM of LANCE Ultra ULight™-JAK-1(Tyr1023) peptide, 4 uM of ATP, 50 mM of HEPES (pH 7.5), 10 mM of MgCl2, 1 mM of EGTA, 2 mM of DTT, 0.01% BRIJ-35. […] The reaction was carried out at room temperature for 90 min and the reaction system was 10 ul.
as §3, §4, §5

JAK2 = target: T3, JAK2 (Homo sapiens, UniProt O60674); test: Test for in vitro activity of JAK2 kinase (LANCE Ultra ULight-JAK-1 peptide); conditions: recombinant human JAK2, 12 uM ATP, 60 min; class symbol
T3 construct: purchased Life technology
T3 sequence (O60674 whole entry): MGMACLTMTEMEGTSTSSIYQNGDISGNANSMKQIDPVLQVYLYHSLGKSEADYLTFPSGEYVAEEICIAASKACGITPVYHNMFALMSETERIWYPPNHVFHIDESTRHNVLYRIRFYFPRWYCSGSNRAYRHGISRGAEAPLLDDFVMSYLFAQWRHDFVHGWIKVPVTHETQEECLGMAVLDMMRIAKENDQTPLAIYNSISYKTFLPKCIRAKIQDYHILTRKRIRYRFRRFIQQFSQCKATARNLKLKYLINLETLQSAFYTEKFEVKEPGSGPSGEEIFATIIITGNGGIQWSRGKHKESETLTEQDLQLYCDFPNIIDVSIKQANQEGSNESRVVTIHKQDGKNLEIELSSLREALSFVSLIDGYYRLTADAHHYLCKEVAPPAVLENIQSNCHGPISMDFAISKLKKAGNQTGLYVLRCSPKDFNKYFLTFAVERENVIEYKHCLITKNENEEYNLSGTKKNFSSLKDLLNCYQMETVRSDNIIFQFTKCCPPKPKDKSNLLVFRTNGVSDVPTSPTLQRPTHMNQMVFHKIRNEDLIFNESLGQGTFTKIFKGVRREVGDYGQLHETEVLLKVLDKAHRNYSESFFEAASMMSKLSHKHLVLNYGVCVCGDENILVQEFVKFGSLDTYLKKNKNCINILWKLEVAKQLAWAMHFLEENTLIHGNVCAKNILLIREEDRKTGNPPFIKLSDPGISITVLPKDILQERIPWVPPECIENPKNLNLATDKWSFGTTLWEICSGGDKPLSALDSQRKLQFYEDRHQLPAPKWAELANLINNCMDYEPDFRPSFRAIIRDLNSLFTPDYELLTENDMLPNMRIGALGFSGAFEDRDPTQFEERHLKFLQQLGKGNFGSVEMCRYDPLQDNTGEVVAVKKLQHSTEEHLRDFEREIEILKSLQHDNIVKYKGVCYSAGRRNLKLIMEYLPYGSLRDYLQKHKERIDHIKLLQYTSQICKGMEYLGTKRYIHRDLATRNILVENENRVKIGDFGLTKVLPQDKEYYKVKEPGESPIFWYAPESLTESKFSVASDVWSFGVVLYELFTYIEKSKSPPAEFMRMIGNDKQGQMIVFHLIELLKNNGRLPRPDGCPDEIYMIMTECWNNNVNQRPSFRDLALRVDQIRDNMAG
Method: as §1, §2
The reaction was carried out at room temperature for 60 min and the reaction system was 10 ul.
as §3, §4, §5

T1 sequence (P23458 whole entry): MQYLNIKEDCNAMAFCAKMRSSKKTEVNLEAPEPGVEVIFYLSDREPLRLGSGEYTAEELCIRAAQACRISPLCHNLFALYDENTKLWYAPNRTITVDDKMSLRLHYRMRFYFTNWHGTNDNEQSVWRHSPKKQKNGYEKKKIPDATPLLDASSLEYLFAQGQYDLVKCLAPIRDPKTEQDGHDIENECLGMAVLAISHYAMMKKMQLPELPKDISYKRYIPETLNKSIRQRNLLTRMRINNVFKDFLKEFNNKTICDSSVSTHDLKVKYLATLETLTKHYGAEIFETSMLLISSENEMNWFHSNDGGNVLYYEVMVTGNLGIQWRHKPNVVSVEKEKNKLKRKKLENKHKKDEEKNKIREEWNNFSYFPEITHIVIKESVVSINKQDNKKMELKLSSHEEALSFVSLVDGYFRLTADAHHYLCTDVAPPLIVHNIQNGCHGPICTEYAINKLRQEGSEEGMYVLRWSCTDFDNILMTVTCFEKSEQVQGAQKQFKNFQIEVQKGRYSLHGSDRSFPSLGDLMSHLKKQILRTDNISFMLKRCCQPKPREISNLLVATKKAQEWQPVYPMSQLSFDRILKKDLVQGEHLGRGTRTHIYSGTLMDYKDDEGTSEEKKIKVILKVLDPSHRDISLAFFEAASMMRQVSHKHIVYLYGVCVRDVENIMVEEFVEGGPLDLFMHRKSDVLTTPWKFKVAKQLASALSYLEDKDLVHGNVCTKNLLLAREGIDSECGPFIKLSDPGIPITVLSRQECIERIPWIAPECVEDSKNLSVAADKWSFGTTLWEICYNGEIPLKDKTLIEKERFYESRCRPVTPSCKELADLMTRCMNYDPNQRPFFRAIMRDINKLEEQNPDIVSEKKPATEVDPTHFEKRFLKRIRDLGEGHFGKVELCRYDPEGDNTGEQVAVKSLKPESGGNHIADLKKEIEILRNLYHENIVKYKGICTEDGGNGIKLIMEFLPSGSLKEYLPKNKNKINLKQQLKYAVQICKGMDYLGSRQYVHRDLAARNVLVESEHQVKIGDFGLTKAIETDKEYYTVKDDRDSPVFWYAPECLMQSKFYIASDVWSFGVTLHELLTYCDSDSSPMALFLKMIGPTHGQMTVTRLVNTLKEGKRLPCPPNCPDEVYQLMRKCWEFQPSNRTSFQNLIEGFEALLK

Row | Compound | JAK1/JAK2 (times) (JAK1) | JAK3/JAK2 (times) (JAK3) | IC50 (JAK2) [µM]
1 | CS(=O)(=O)N1CC(CC#N)(n2cc(-c3cccc4nc(N)nn34)cn2)C1 [WX19, 2-(3-(4-(2-amino-[1,2,4]triazolo[1,5-a]pyridinyl)-1H-pyrazolyl)-1-(methylsulfonyl)cyclobutane)acetonitrile] | F1 (1 ≤ F1 ≤ 5) | F3 (10 < F3 ≤ 25) | 0.01 to 0.1
2 | N#CCC1(n2cc(-c3nccc4nc(NC(=O)C5CC(O)C5)nn34)cn2)CN(S(=O)(=O)C(F)(F)F)C1 (stereo not drawn) [WX07, N-[5-[1-[3-(cyanomethyl)-1-(trifluoromethylsulfonyl)cyclobutylamine-3-yl]pyrazole-4-yl]-[1,2,4]triazolo[1,5-c]pyrimidin-2-yl]-3-hydroxy-cyclobutane formamide] | F2 (5 < F2 ≤ 10) | F4 (25 < F4 ≤ 100) | 0.01 to 0.1
3 | N#CCC1(n2cc(-c3cccc4nc(NC(=O)C5CC5)nn34)cn2)CN(S(=O)(=O)C(F)(F)F)C1 [WX09, N-(5-(1-(3-(cyanomethyl)-1-(trifluoromethylsulfonyl)azetidine-3-yl)-1H-pyrazole-4-yl)-[1,2,4]triazolo[1,5-a]pyridin-2-yl)cyclopropane formamide] | F1 (1 ≤ F1 ≤ 5) | F4 (25 < F4 ≤ 100) | < 0.01
4 | CS(=O)(=O)N1CC(CC#N)(n2cc(-c3cccc4nc(NC(=O)C5CC5)oc34)cn2)C1 [WX30, N-(7-(1-(3-(cyanomethyl)-1-(methylsulfonyl)azetidin-3-yl)-1H-pyrazole-4-yl)benzo[d]oxazole-2-yl) cyclopropanecarboxamide] | F2 (5 < F2 ≤ 10) | F4 (25 < F4 ≤ 100) | < 0.01
5 | CCS(=O)(=O)N1CC(CC#N)(n2cc(-c3nccc4nc(NC(=O)C5CC5)nn34)cn2)C1 [WX01, N-[5-[1-[3-(cyanomethyl)-1-ethylsulfonylazetidine-3-yl]pyrazole-4-yl]-[1,2,4]triazolo[1,5-c]pyrimidin-2-yl]cyclopropanecarboxamide] | F2 (5 < F2 ≤ 10) | F3 (10 < F3 ≤ 25) | 0.01 to 0.1
6 | CCS(=O)(=O)N1CC(CC#N)(n2cc(-c3cccn4nc(NC(=O)C5CC5)nc34)cn2)C1 [WX20, N-(8-(1-(3-(cyanomethyl)-1-(ethylsulfonyl)azetidine-3-yl)-1H-pyrazole-4-yl)-[1,2,4]triazolo[1,5-a]pyridin-2-yl) cyclopropanecarboxamide] | F1 (1 ≤ F1 ≤ 5) | F4 (25 < F4 ≤ 100) | < 0.01
7 | CS(=O)(=O)N1CC(CC#N)(n2cc(-c3nccc4nc(NC(=O)CC#N)nn34)cn2)C1 [WX26] | F3 (10 < F3 ≤ 25) | F3 (10 < F3 ≤ 25) | 0.1 to 1
8 | CCS(=O)(=O)N1CC(CC#N)(n2cc(-c3cccc4nc(NC(=O)C5CC5)nn34)cn2)C1 [WX16, N-(5-(1-(3-(cyanomethyl)-1-(ethylsulfony)azetidine-3-yl)-1H-pyrazole-4-yl]-[1,2,4]triazolo[1,5-a]pyridin-2-yl)cyclopropyl carboxamide] | F1 (1 ≤ F1 ≤ 5) | F3 (10 < F3 ≤ 25) | < 0.01
9 | N-(5-(1-(3-(cyanomethyl)-1-((methylsulfonyl)azetidine-3-yl)-1H-pyrazole-4-yl)-[1,2,4]triazolo[1,5-c]pyridin-2-yl)-2-methoxyacetamide [WX25] | F3 (10 < F3 ≤ 25) | F2 (5 < F2 ≤ 10) | 0.1 to 1
10 | CN(C)Cc1cc(C(=O)N2CCC(N3CC(CC#N)(n4cc(-c5cccc6nc(NC(=O)C7CC7)nn56)cn4)C3)CC2)nc(C(F)(F)F)n1 [WX33] | F1 (1 ≤ F1 ≤ 5) | F3 (10 < F3 ≤ 25) | 0.01 to 0.1
